In ChEMBL document CHEMBL6092122, “Nonenzymatic Sequestering of Formaldehyde into the Antibiotic Methylene-Bridged Dimer Phaeochromycin F by Streptomyces sp. OUCMDZ-4982 as a Possible Multipronged Chemical Defense Mechanism” (J Nat Prod, 2024):
In brackets after ≈: the same amount, converted by molar mass. Activity calls are given as the source filed them. No cut-off for these calls is given here.

Tests used:
Staphylococcus aureus [1] = assay: Antibacterial activity against Staphylococcus aureus ATCC 43300 incubated for 24 hrs by microdilution method; assay type: functional
[2] = Chemical reactivity of compound in formaldehyde assessed as (1S,2R,18R,19R,22S,25R,28R,40S)-48-[(2S,3R,4S,5S,6R)-3-[(2S,4S,5S,6S)-4-amino-5-hydroxy-4,6-dimethyl-tetrahydropyran-2-yl]oxy-4,5-dihydroxy-6-(hydroxymethyl)tetrahydropyran-2-yl]oxy-22-(2-amino-2-oxo-ethyl)-5,15-dichloro-2,18,32,35,37-pentahydroxy-19-[(4R)-4-isobutyl-3-methyl-5-oxo-imidazolidin-1-yl]-20,23,26,42,44-pentaoxo-7,13-dioxa-21, …; assay type: physicochemical
[3] = Chemical reactivity of compound in formaldehyde assessed as (4R,4aR,5aS,12aR)-9-(3-(tert-butyl)-5-oxoimidazolidin-1-yl)-4,7-bis(dimethylamino)-3,10,12,12a-tetrahydroxy-1,11-dioxo-1,4,4a,5,5a,6,11,12a-octahydrotetracene-2-carboxamide formation; assay type: physicochemical
[4] = Chemical reactivity of compound in acetaldehyde assessed as (1S,2R,18R,19R,22S,25R,28R,40S)-48-[(2S,3R,4S,5S,6R)-3-[(2S,4S,5S,6S)-4-amino-5-hydroxy-4,6-dimethyl-tetrahydropyran-2-yl]oxy-4,5-dihydroxy-6-(hydroxymethyl)tetrahydropyran-2-yl]oxy-22-(2-amino-2-oxo-ethyl)-5,15-dichloro-2,18,32,35,37-pentahydroxy-19-[(2R,4R)-4-isobutyl-2,3-dimethyl-5-oxo-imidazolidin-1-yl]-20,23,26,42,44-pentaoxo-7,13-di …; assay type: physicochemical
Staphylococcus aureus [5] = assay: Antibacterial activity against methicillin-resistant Staphylococcus aureus ATCC 43300 incubated for 24 hrs by microdilution method; assay type: functional
Pseudomonas aeruginosa = assay: Antibacterial activity against Pseudomonas aeruginosa ATCC 10145 incubated for 24 hrs by microdilution method; assay type: functional, organism-based
Escherichia coli = assay: Antibacterial activity against Escherichia coli ATCC 11175 incubated for 24 hrs by microdilution method; assay type: functional, organism-based
Candida albicans = assay: Antifungal activity against Candida albicans ATCC 10231 incubated for 24 hrs by microdilution method; assay type: functional, organism-based
Nakaseomyces glabratus = assay: Antifungal activity against Candida glabrata ATCC 2001 incubated for 24 hrs by microdilution method; assay type: functional, organism-based
Staphylococcus aureus [6] = assay: Antibacterial activity against Staphylococcus aureus ATCC 6538 incubated for 24 hrs by microdilution method; assay type: functional
Staphylococcus aureus [7] = assay: Bactericidal activity against Staphylococcus aureus ATCC 43300 incubated for 24 hrs by microdilution method; assay type: functional
Bacillus subtilis [8] = assay: Antibacterial activity against Bacillus subtilis ATCC 6051 incubated for 24 hrs by microdilution method; assay type: functional
Bacillus subtilis [9] = assay: Bactericidal activity against Bacillus subtilis ATCC 6051 incubated for 24 hrs by microdilution method; assay type: functional
Staphylococcus aureus [10] = assay: Bactericidal activity against Staphylococcus aureus ATCC 6538 incubated for 24 hrs by microdilution method; assay type: functional
[11] = Drug metabolism in Staphylococcus aureus ATCC 6538 assessed as (1S,2R,18R,19R,22S,25R,28R,40S)-48-[(2S,3R,4S,5S,6R)-3-[(2S,4S,5S,6S)-4-amino-5-hydroxy-4,6-dimethyl-tetrahydropyran-2-yl]oxy-4,5-dihydroxy-6-(hydroxymethyl)tetrahydropyran-2-yl]oxy-22-(2-amino-2-oxo-ethyl)-5,15-dichloro-2,18,32,35,37-pentahydroxy-19-[(4R)-4-isobutyl-3-methyl-5-oxo-imidazolidin-1-yl]-20,23,26,42,44-pentaoxo-7,13-dioxa- …; assay type: ADME
Staphylococcus aureus [12] = assay: microbe, parasite or virus in culture; settings: ATCC 6538
Description: Antibacterial activity against Staphylococcus aureus ATCC 6538 in presence of 4 mg/L HCHO by microdilution method

Staphylococcus aureus [13] = assay: microbe, parasite or virus in culture; settings: ATCC 6538; remark: listed apart in the source
Description: Antibacterial activity against Staphylococcus aureus ATCC 6538 in presence of 8 mg/L HCHO by microdilution method

Staphylococcus aureus [14] = assay: microbe, parasite or virus in culture; settings: ATCC 43300
Description: Antibacterial activity against methicillin-resistant Staphylococcus aureus ATCC 43300 in presence of 4 mg/L HCHO by microdilution method

Staphylococcus aureus [15] = assay: microbe, parasite or virus in culture; settings: ATCC 43300; remark: listed apart in the source
Description: Antibacterial activity against methicillin-resistant Staphylococcus aureus ATCC 43300 in presence of 8 mg/L HCHO by microdilution method

For `CN(C)c1cc(NC(=O)CNC(C)(C)C)c(O)c2c1C[C@H]1C[C@H]3[C@H](N(C)C)C(O)=C(C(N)=O)C(=O)[C@@]3(O)C(O)=C1C2=O` [TIGECYCLINE], the MIC (Staphylococcus aureus [1]) was 0.5 µg/mL (≈ 0.854 µM), the Activity [2] was “Active” and the Activity [3] was “Active”. For the same compound, the Activity [4] was “Active” and the MIC (Staphylococcus aureus [5]) was 0.5 µg/mL (≈ 0.854 µM).
With `Cc1cc(=O)c2c(Cc3cc(O)c(C(C)c4c(O)cc(Cc5cccc6oc(C)cc(=O)c56)oc4=O)c(=O)o3)cccc2o1` the Activity (Pseudomonas aeruginosa) was “inactive”, the Activity (Escherichia coli) was “inactive” and the Activity (Candida albicans) was “inactive”. The Activity (Nakaseomyces glabratus) was “inactive”.
For `Cc1cc(=O)c2c(Cc3cc(O)c(Cc4c(O)cc(CC5(O)CC(=O)c6c(C)cc(O)cc6O5)oc4=O)c(=O)o3)cccc2o1` (centres undefined), the Activity (Pseudomonas aeruginosa) was “inactive”, the Activity (Escherichia coli) was “inactive” and the Activity (Candida albicans) was “inactive”. For the same compound, the Activity (Nakaseomyces glabratus) was “inactive”.
With `CC1(O)CC(=O)c2c(Cc3cc(O)c(Cc4c(O)cc(Cc5cccc6c5C(=O)CC(C)(O)O6)oc4=O)c(=O)o3)cccc2O1` (centres undefined) the Activity (Pseudomonas aeruginosa) was “inactive”, the Activity (Escherichia coli) was “inactive” and the Activity (Candida albicans) was “inactive”. The Activity (Nakaseomyces glabratus) was “inactive”.
In the case of `CCOC(=O)C[C@@H]1Oc2cc(C)oc(=O)c2[C@@H]1c1c(O)cc(C)oc1=O`, the Activity (Pseudomonas aeruginosa) is reported as “inactive”, the Activity (Escherichia coli) is reported as “inactive” and the Activity (Candida albicans) is reported as “inactive”. For the same compound, the Activity (Nakaseomyces glabratus) was “inactive”.
With `Cc1cc(=O)c2c(Cc3cc(O)c(C(c4ccccc4)c4c(O)cc(Cc5cccc6oc(C)cc(=O)c56)oc4=O)c(=O)o3)cccc2o1` the Activity (Pseudomonas aeruginosa) was “inactive”, the Activity (Escherichia coli) was “inactive” and the Activity (Candida albicans) was “inactive”. For the same compound, the Activity (Nakaseomyces glabratus) was “inactive”.
In the case of `O=C(O)c1cn(C2CC2)c2cc(N3CCNCC3)c(F)cc2c1=O` [CIPROFLOXACIN], the MIC (Staphylococcus aureus [6]) is reported as 0.5 µg/mL (≈ 1.51 µM), the MIC (Staphylococcus aureus [1]) is reported as 1 µg/mL (≈ 3.02 µM) and the MBC (Staphylococcus aureus [7]) is reported as 4 µg/mL (≈ 12.1 µM). The MIC (Bacillus subtilis [8]) was 0.13 µg/mL (≈ 0.392 µM) and the MBC (Bacillus subtilis [9]) was 0.13 µg/mL (≈ 0.392 µM).
With `CCOC(=O)/C=C/C(c1c(O)cc(C)oc1=O)c1c(O)cc(C)oc1=O` the Activity (Pseudomonas aeruginosa) was “inactive”, the Activity (Escherichia coli) was “inactive” and the Activity (Candida albicans) was “inactive”. The Activity (Nakaseomyces glabratus) was “inactive”.
In the case of `Cc1cc(=O)c2c(Cc3cc(O)c(Cc4c(O)cc(Cc5cccc(O)c5)oc4=O)c(=O)o3)cccc2o1`, the Activity (Pseudomonas aeruginosa) is reported as “inactive”, the Activity (Escherichia coli) is reported as “inactive” and the Activity (Candida albicans) is reported as “inactive”. For the same compound, the Activity (Nakaseomyces glabratus) was “inactive”.
For `Cc1cc(=O)c2c(Cc3cc(O)c(Cc4c(O)cc(Cc5cccc6c5C(=O)CC(C)(O)O6)oc4=O)c(=O)o3)cccc2o1` (centres undefined), the Activity (Pseudomonas aeruginosa) was “inactive”, the Activity (Escherichia coli) was “inactive” and the Activity (Candida albicans) was “inactive”. For the same compound, the Activity (Nakaseomyces glabratus) was “inactive”.
`CN[C@H](CC(C)C)C(=O)N[C@H]1C(=O)N[C@@H](CC(N)=O)C(=O)N[C@H]2C(=O)N[C@H]3C(=O)N[C@H](C(=O)N[C@H](C(=O)O)c4cc(O)cc(O)c4-c4cc3ccc4O)[C@H](O)c3ccc(c(Cl)c3)Oc3cc2cc(c3O[C@@H]2O[C@H](CO)[C@@H](O)[C@H](O)[C@H]2O[C@H]2C[C@](C)(N)[C@H](O)[C@H](C)O2)Oc2ccc(cc2Cl)[C@H]1O` [VANCOMYCIN] gave an MBC (Staphylococcus aureus [10]) of 4 µg/mL (≈ 2.76 µM), an MBC (Staphylococcus aureus [7]) of 4 µg/mL (≈ 2.76 µM) and an MIC (Bacillus subtilis [8]) of 0.5 µg/mL (≈ 0.345 µM). The MBC (Bacillus subtilis [9]) was 0.5 µg/mL (≈ 0.345 µM), the Activity [2] was “Active” and the Activity [3] was “Active”. The Activity [4] was “Active”, the Drug metabolism [11] was “metabolite_detected” and the MIC (Staphylococcus aureus [12]) was 8 µg/mL (≈ 5.52 µM). For the same compound, the MIC (Staphylococcus aureus [13]) was 16 µg/mL (≈ 11 µM), the MIC (Staphylococcus aureus [14]) was 8 µg/mL (≈ 5.52 µM) and the MIC (Staphylococcus aureus [15]) was 16 µg/mL (≈ 11 µM).
